Data set [1] can be described thus: Phase 1 clinical trial, SAD (single ascending dose) study. As to conditions: human, in vivo.
The next data set has as its target T1, 5HT6 (h) (Homo sapiens, UniProt P50406).
T1 construct: host or cells: CHO cells
The experiment in a line: 5HT subtype antagonism assay (Eurofins Cerep): 5HT6. It counts as cell-based. Conditions: concentration not given.

The target of the next data set is CYP3A4 (Homo sapiens, UniProt P08684). Briefly: in vitro.
Data set [2] can be described thus: Pharmacokinetic study in rats. In kind it is in vivo, Sprague-Dawley rats. Conditions: rat. The procedure: The experimental protocol for this study was approved by the IACUC of KPC Co., Ltd. (No. KPC IACUC-P203046; Beagle dogs) or QuBEST BIO (No.QBIACUC-A20131). All relevant ethical guidelines were followed. Beagle male dogs (11 ~ 20 months old) were purchased from ORIENT BIO Inc. and were housed in the barrier animal facility of KPC Co., Ltd. under a regular light-dark cycle (12-hour light/12-hour dark) at 21.1–23.4°C with 55.3–72.2% humidity. Food (standard irradiated pelleted commercial laboratory diet, Cargill Agri Purina, 300 g/dog.day) and water were provided ad libitum. All study dogs were returned to the laboratory colony after the study without any euthanasia. Sprague-Dawley male rats (7 weeks old) were purchased from SAMTAKOBIOKOREA, Inc. and were housed in the barrier animal facility of Nonclinical Research Center, QuBEST BIO under a regular light-dark cycle (12-hour light/12-hour dark) at 19.7–22.7°C with 54.5–65.6% humidity. Food (standard irradiated pelleted commercial laboratory diet, Purina Rodent Chow, 38057) and water were provided ad libitum. All study rats were euthanized by CO2 gas upon study completion.
Blood samples were collected at the scheduled times up to 24 h post-dose (IV: 0.083, 0.25, 0.5, 1, 2, 4, 8, 12 and 24 h post-dose, PO: 0.25, 0.5, 1, 2, 4, 8, 12 and 24 h post-dose). Determination of compound 11c in plasma was performed by UHPLC-MS/MS. Pharmacokinetic parameters were calculated by noncompartmental analysis using Phoenix® WinNonlin® (Ver. 8.3‘, Certara).

Data set [3] in a line: AMES test (mutagenic potential).
Another data set concerns the target T2, 5HT2B (h) (Homo sapiens, UniProt P41595).
T2 construct: host or cells: CHO cells
The experiment in a line: 5HT subtype antagonism assay (Eurofins Cerep): 5HT2B. It counts as cell-based. The procedure: The derivatives were evaluated at a concentration of 1 μM for their antagonist activity on the 5HT2A receptor (Tables 1–3)[33],[34]. Human 5HT2A stably transfected HEK293 cells (a type of cell derived from kidney embryos)[20] were seeded in a 96-well plate (Costar; 3603) at a density of 9 × 10^4 in 100 μL of minimum essential medium (Welgene; LM007-86) containing 10% dialyzed fetal bovine serum (Gibco; 30067–334) and 1% penicillin/streptomycin (Gibco; 15140-122) and kept in a 37 °C incubator for 24 h. The cells were stained with 100 μL of cytosolic calcium dye using the FLIPR calcium 6 assay solution (Molecular devices, #R8190) supplemented with 2.5 mM probenecid (Sigma; P8761) and incubated for 1 h at 37 °C. After 1 h, the designated amount of the compound was treated in each well and incubated for another 1 h at 37 °C. Then, the cells were loaded in a Flexstation 3 microplate reader (Molecular Devices; FlexStaion) and 50 μL of 5 μM 5HT (serotonin hydrochloride, Sigma; H9523) was injected from a source plate (Nunc 96-well polystyrene conical bottom MicroWell Plate, Thermo; 249662) and the fluorescence intensity (Ex/Em-485nm/ 525 nm) was measured. […]
Antagonism assay Source Stimulus Incubation Measured Detection Method […]

Setting [4] is: male, Sprague-Dawley, plasma, 5 mg/kg, IV (5 mpk).

In general, half-life refers to the time in which the quantity being followed falls by half. Low values mean fast loss, high ones slow loss. As usually defined, the inhibition is the relative decrease from the control value, in per cent. Read a high inhibition as a strong effect. In general, AUC refers to concentration integrated over time. Low values mean low exposure, high ones high exposure. As usually defined, the clearance is the rate of elimination divided by the concentration. Low readings indicate a low capacity for elimination, high ones a high capacity for elimination. Broadly, the IC50 is the concentration needed to halve the response being measured.

Molecules are shown by their SMILES. Entries after “also recorded” stand apart in the source; their conditions may differ. Read-outs that look alike come from different tables or passages of the source.

T2 sequence (P41595 whole entry): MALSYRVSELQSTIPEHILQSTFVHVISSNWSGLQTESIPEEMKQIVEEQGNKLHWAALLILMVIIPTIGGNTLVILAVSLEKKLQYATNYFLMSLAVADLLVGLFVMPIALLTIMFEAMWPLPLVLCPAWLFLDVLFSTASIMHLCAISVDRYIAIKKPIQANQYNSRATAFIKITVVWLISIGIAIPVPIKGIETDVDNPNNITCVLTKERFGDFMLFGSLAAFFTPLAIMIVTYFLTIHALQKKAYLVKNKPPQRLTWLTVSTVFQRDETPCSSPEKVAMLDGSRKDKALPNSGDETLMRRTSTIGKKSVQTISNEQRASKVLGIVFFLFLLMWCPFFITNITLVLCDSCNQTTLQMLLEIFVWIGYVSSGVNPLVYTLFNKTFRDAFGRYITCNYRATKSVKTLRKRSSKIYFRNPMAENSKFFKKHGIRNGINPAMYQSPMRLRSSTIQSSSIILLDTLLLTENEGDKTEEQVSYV
T1 sequence (P50406 whole entry): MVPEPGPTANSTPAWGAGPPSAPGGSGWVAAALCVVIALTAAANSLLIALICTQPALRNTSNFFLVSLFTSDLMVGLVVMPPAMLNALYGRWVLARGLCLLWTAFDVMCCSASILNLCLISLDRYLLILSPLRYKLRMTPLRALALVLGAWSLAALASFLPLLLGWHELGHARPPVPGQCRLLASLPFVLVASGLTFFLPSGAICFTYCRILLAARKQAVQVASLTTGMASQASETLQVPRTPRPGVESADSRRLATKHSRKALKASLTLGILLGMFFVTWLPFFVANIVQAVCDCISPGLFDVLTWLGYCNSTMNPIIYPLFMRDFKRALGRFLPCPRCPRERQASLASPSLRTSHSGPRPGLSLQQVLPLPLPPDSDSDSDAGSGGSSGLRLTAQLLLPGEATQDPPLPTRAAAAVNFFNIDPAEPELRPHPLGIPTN
Sequence of CYP3A4 (P08684 whole entry): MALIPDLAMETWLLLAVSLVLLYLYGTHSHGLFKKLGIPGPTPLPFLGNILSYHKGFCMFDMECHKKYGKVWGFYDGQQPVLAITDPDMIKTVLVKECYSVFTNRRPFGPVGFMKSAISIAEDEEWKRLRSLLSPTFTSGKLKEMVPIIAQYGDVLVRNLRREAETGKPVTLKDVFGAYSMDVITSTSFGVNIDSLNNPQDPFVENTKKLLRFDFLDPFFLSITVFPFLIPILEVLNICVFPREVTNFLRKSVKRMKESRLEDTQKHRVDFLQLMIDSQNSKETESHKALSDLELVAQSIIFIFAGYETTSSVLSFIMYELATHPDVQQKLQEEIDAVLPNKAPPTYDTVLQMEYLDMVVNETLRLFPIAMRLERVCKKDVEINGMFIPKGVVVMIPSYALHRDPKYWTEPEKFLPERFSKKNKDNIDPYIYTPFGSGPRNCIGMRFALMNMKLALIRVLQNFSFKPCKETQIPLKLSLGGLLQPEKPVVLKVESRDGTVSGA

Take `Cc1nc2n(c(=O)c1CCN1CCC(=C3c4ccc(Cl)cc4CCc4cccnc43)CC1)CCCC2O` (stereo not drawn) [Compound 11c]: the half-life in data set [1] is > 10 h; in data set [2] (male, Sprague-Dawley, plasma, iv, 5 mg/kg, IV (5 mpk)), 4.14 h; in data set [2] (male, Sprague-Dawley, plasma, po, 5 mg/kg, PO (5 mpk)) it was 2.5 h; in data set [2] (male, Sprague-Dawley, plasma, po, 10 mg/kg, PO (10 mpk)), 2.7 h. Further, the “Selectivity 6: % inhibition” value at 5HT6 (h) turned out to be 7%. The same compound registered an inhibition at 10 µM against CYP3A4 of 17.6%. The area under the curve (AUC) in data set [2] (setting [4]) was 1550 ng·h/mL; in data set [2] (male, Sprague-Dawley, plasma, 5 mg/kg, PO (5 mpk)), 980 ng·h/mL; in data set [2] (male, Sprague-Dawley, plasma, 10 mg/kg, PO (10 mpk)), 2880 ng·h/mL. This compound also had a clearance in data set [2] (setting [4]) of 47 mL/min/kg. The bioavailability was 63% in data set [2] (male, Sprague-Dawley, plasma, 5 mg/kg, PO (5 mpk), read-out: F (%)); 92.5% in data set [2] (male, Sprague-Dawley, plasma, 10 mg/kg, PO (10 mpk), read-out: F (%)); > 60% in data set [2] (male, Sprague-Dawley, plasma, po, rats (summary statement), read-out: oral bioavailability). In data set [2] (IV (5 mpk)), the “V” value was determined as 8.86 L/kg. In addition, in data set [2] (IV (5 mpk), 5 mg/kg), the “T1/2” value is listed as 4.4 h. Also, the AMES entry in data set [3] was “didn’t show mutagenic potential; also recorded: Negative”. Besides, the “Selectivity 2B: % inhibition” value at 5HT2B (h) (concentration not given) came out at 94%. At 5HT2B (h) (read-out: Selectivity 2B: IC50), the concentration for half-maximal inhibition (IC50) worked out at 290 nM.

Values taken from paper PMC10799935, “Discovery of a peripheral 5HT2A antagonist as a clinical candidate for metabolic dysfunction-associated steatohepatitis” (Nature Communications, 2024).
